The values below come from BindingDB's records for doi:10.1016/j.bmcl.2012.03.090 (Spanish National Cancer Research Centre (Cnio), 2012).

The term IC50 denotes the concentration at which inhibition is half-maximal. A higher IC50 goes with weaker potency.

The assay addresses Phosphatidylinositol 3-kinase regulatory subunit alpha/4,5-bisphosphate 3-kinase catalytic subunit alpha isoform (Homo sapiens, UniProt P27986+P42336). Kind of assay: Inhibition of human PI3Kalpha (p110alpha/p85alpha) by ADP accumulation based HTRF assay.

Each structure is given as a SMILES string.

Sequence of Phosphatidylinositol 3-kinase regulatory subunit alpha/4,5-bisphosphate 3-kinase catalytic subunit alpha isoform (P27986 whole entry, canonical isoform): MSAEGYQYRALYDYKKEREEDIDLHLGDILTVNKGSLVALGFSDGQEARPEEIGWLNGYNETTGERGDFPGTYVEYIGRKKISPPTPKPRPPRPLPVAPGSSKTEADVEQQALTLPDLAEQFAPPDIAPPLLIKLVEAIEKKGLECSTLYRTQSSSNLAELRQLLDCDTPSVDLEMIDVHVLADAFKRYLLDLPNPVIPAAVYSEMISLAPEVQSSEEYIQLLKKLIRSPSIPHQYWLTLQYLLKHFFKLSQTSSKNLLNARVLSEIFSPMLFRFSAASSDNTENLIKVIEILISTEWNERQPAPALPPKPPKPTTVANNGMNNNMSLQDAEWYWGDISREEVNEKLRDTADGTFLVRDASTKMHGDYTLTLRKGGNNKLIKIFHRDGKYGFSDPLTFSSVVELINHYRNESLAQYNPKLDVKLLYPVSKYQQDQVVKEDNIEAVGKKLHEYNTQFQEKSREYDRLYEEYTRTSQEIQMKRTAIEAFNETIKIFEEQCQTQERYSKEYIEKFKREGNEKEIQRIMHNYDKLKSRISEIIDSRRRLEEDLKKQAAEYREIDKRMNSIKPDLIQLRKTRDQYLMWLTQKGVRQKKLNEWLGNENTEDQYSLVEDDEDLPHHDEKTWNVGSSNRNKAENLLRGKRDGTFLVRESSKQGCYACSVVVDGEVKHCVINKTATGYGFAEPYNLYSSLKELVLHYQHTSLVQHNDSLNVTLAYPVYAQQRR
Sequence of Phosphatidylinositol 3-kinase regulatory subunit alpha/4,5-bisphosphate 3-kinase catalytic subunit alpha isoform (P42336 whole entry, canonical isoform): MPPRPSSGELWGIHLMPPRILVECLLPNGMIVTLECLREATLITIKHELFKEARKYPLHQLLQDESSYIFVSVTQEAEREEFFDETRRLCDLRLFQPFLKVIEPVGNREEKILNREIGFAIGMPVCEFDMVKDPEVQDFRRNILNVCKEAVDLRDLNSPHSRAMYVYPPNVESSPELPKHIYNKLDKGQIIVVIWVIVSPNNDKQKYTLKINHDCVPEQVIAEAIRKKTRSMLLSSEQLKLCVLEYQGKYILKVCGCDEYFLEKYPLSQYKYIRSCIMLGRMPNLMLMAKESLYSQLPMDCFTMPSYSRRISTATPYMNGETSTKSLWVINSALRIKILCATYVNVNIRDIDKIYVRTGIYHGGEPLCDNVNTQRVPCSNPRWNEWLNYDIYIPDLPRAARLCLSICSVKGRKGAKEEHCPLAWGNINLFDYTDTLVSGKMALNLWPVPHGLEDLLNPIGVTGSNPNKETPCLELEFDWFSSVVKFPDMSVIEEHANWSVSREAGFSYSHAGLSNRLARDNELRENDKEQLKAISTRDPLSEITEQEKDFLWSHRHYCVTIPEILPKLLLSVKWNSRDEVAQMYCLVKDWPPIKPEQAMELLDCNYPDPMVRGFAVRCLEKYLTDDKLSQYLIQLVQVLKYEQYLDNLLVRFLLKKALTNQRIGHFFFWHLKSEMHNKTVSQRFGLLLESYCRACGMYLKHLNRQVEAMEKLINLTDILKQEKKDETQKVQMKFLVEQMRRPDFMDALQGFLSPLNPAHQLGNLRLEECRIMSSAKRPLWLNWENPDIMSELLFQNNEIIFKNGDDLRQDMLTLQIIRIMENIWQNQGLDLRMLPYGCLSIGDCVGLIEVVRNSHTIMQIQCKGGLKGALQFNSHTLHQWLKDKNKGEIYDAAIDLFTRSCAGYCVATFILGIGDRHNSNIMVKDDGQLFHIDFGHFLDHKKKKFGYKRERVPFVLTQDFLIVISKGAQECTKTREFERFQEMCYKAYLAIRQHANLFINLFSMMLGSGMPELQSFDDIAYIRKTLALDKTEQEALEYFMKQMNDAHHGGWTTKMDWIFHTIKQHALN

The compound `CS(=O)(=O)N1CCN(Cc2cn3cc(-c4cnc5[nH]ccc5c4)nc(N4CCOCC4)c3n2)CC1` displayed an IC50 of 113 nM.
To `CC(=O)Nc1ccc(-c2cn3cc(CN4CCN(S(C)(=O)=O)CC4)nc3c(N3CCOCC3)n2)cn1` belongs 210 nM; to `CS(=O)(=O)N1CCN(Cc2cn3cc(-c4ccc(N)nc4)nc(N4CCOCC4)c3n2)CC1`, 169 nM.
To `COc1ccc(-c2cn3cc(CN4CCN(S(C)(=O)=O)CC4)nc3c(N3CCOCC3)n2)cn1` belongs 4550 nM.
To `Cc1ccncc1-c1cn2cc(CN3CCN(S(C)(=O)=O)CC3)nc2c(N2CCOCC2)n1` belongs 468 nM; to `Cc1ccc(-c2cn3cc(CN4CCN(S(C)(=O)=O)CC4)nc3c(N3CCOCC3)n2)cn1`, 776 nM.
With `Cc1ncc(-c2cn3cc(CN4CCN(S(C)(=O)=O)CC4)nc3c(N3CCOCC3)n2)cn1`, the IC50 amounted to 21.1 nM.
The compound `Cc1nc(N)ncc1-c1cn2cc(CN3CCN(S(C)(=O)=O)CC3)nc2c(N2CCOCC2)n1` registered an IC50 of 32.3 nM.
With `CS(=O)(=O)N1CCC2(CC1)CN(Cc1cn3cc(-c4cnc(N)nc4)nc(N4CCOCC4)c3n1)C2`, inhibition was half-maximal at 110 nM (IC50).
With `CN(C)CC(=O)N1CCN(Cc2cn3cc(-c4cnc(N)nc4)nc(N4CCOCC4)c3n2)CC1`, the IC50 came to 34 nM.
